Measurements reported in ChEMBL document CHEMBL3098072 (Bioorg Med Chem, 2014).
Values after ≈ are worked out from the molar mass of the structure shown. Active and inactive are the calls of the source. The calls are words filed in the database; no cut-off is given here.

Experiments:
HeLa = test: Cytotoxicity against human HeLa cells at 64 uM after 2 hrs by MTS assay relative to control; format: cell-based
[1] = Cytotoxicity against mouse J774A1 cells at 64 uM after 2 hrs by MTS assay relative to control; format: cell-based; conditions: j774.a1, 2 h
[2] = molecular target: T1, Inorganic pyrophosphatase (Mycobacterium tuberculosis (strain ATCC 25618 / H37Rv)) (UniProt P9WI55); test: Inhibition of Mycobacterium tuberculosis PPase at 100 uM using inorganic pyrophosphate as substrate preincubated for 2 mins followed by substrate addition measured after 6 mins by malachite green assay
T1 sequence (whole entry): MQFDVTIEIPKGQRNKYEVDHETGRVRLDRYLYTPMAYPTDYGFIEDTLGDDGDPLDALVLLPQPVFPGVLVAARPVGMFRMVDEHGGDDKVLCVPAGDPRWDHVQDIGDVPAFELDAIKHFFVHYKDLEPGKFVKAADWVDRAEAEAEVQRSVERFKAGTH

[3] = system: Mycobacterium tuberculosis; test: microbe, parasite or virus in culture; conditions: H37Rv, 96 h
[4] = molecular target: T2, Inorganic pyrophosphatase (Mycobacterium tuberculosis (strain ATCC 25618 / H37Rv), UniProt P9WI55); test: Inhibition of Mycobacterium tuberculosis PPase using inorganic pyrophosphate as substrate preincubated for 2 mins followed by substrate addition measured after 6 mins by malachite green assay
T2 sequence (P9WI55 whole entry): T1 sequence (whole entry)

[5] = Solubility of the compound in DMSO; format: physicochemical
Bacillus subtilis = test: microbe, parasite or virus in culture; conditions: 20 h
Bacillus anthracis = test: microbe, parasite or virus in culture; conditions: Sterne 34F2, 20 h
Staphylococcus aureus = test: microbe, parasite or virus in culture; conditions: 20 h

Compound | inhibition [2] | MIC [3] [µM] | further results
Clc1cccc(C2CCN(c3nncc(-c4ccccc4)n3)C2)c1 (stereo not drawn) |  |  | Activity (HeLa): Non-toxic; Activity [1]: Non-toxic
O=[N+]([O-])c1cccc(-c2ccc(-c3cnnc(N4CCC(c5cccc(Cl)c5)C4)n3)cc2)c1 (stereo not drawn) | inactive | > 128 | 
Cc1ccc(-c2cnnc(N3CCC(c4cccc(Cl)c4)C3)n2)o1 (stereo not drawn) | 45.6% | 61 (≈ 20.8 µg/mL) | IC50 [4]: 148 µM
Clc1cccc(C2CCN(c3nncc(-c4ccc(Br)cc4)n3)C2)c1 (stereo not drawn) | 53% | 30.7 (≈ 12.8 µg/mL) | IC50 [4]: 33.3 µM
Cc1ccc(-c2cnnc(N3CCC(c4cccc(F)c4)C3)n2)o1 (stereo not drawn) | 21.3% | 38.9 (≈ 12.6 µg/mL) | 
O=[N+]([O-])c1cccc(-c2cnnc(N3CCC(c4cccc(Cl)c4)C3)n2)c1 (stereo not drawn) | 39.4% | > 128 | IC50 [4]: 118 µM
Cc1ccc(-c2cnnc(N3CCC(c4cccc(N)c4)C3)n2)o1 (stereo not drawn) | 33.4% | 70.1 (≈ 22.5 µg/mL) | 
Cc1ccc(-c2cnnc(N3CCC(c4ccc(O)c(O)c4)C3)n2)o1 (stereo not drawn) | inactive | > 128 | 
Cc1ccc(-c2cnnc(N3CCC(c4cccc(C#N)c4)C3)n2)o1 (stereo not drawn) | 10.3% | 64.4 (≈ 21.3 µg/mL) | 
NNC(=O)c1ccncc1 [ISONIAZID] |  | 0.45 (≈ 0.0617 µg/mL) | 
Cc1ccc(-c2cnnc(N3CCC(c4cccc(OCc5ccccc5)c4)C3)n2)o1 (stereo not drawn) | 73.2% |  | IC50 [4]: 63.2 µM
Cc1ccc(-c2cnnc(N3CCC(c4cccc([N+](=O)[O-])c4)C3)n2)o1 (stereo not drawn) |  | > 16 | solubility [5]: < 100 µM
Cc1ccc(-c2cnnc(N3CCC(c4cccc(O)c4)C3)n2)o1 (stereo not drawn) | inactive | 60.3 (≈ 19.4 µg/mL) | Activity (HeLa): Non-toxic; Activity [1]: Non-toxic; MIC (Bacillus subtilis): 128 µM (≈ 41.3 µg/mL); MBC (Bacillus anthracis): 128 µM (≈ 41.3 µg/mL); MIC (Bacillus anthracis): 64 µM (≈ 20.6 µg/mL); MIC (Staphylococcus aureus): > 50 µM
Nc1ccc(-c2cnnc(N3CCC(c4cccc(Cl)c4)C3)n2)cc1 (stereo not drawn) |  | 5.7 (≈ 2.01 µg/mL) | Activity (HeLa): Non-toxic; Activity [1]: Non-toxic; MBC (Bacillus anthracis): 128 µM (≈ 45 µg/mL); MIC (Bacillus anthracis): 16 µM (≈ 5.63 µg/mL)
O=[N+]([O-])c1ccc(-c2cnnc(N3CCC(c4cccc(Cl)c4)C3)n2)cc1 (stereo not drawn) | 30.3% | 31.2 (≈ 11.9 µg/mL) | 
FC(F)(F)c1ccccc1-c1ccc(-c2cnnc(N3CCC(c4cccc(Cl)c4)C3)n2)o1 (stereo not drawn) | 67.7% | > 128 | IC50 [4]: 38.3 µM
Cc1ccc(-c2cnnc(N3CCC(c4cccc(C(F)(F)F)c4)C3)n2)o1 (stereo not drawn) | 37.8% | 52.4 (≈ 19.6 µg/mL) | IC50 [4]: 355 µM
Cc1ccc(-c2cnnc(N3CCC(c4ccccc4)C3)n2)o1 (stereo not drawn) | 19.7% | 40.5 (≈ 12.4 µg/mL) | 
O=[N+]([O-])c1cccc(-c2ccc(-c3cnnc(N4CCC(c5cccc(Cl)c5)C4)n3)o2)c1 (stereo not drawn) |  | > 16 | solubility [5]: < 100 µM
CO[C@H]1/C=C/O[C@@]2(C)Oc3c(C)c(O)c4c(O)c(c(/C=N/N5CCN(C)CC5)c(O)c4c3C2=O)NC(=O)/C(C)=C\C=C\[C@H](C)[C@H](O)[C@@H](C)[C@@H](O)[C@@H](C)[C@H](OC(C)=O)[C@@H]1C [RIFAMPIN] |  | 0.08 (≈ 0.0658 µg/mL) | 
COC(=O)c1cccc(-c2ccc(-c3cnnc(N4CCC(c5cccc(Cl)c5)C4)n3)o2)c1 (stereo not drawn) |  | > 16 | solubility [5]: < 100 µM
Cc1ccc(-c2cnnc(N3CCC(n4cnc5c(N)ncnc54)C3)n2)o1 (stereo not drawn) | inactive | > 128 | 
COc1ccc(-c2cnnc(N3CCC(c4cccc(Cl)c4)C3)n2)cc1OC (stereo not drawn) |  |  | Activity (HeLa): Non-toxic; Activity [1]: Non-toxic
CN[C@H](CC(C)C)C(=O)N[C@H]1C(=O)N[C@@H](CC(N)=O)C(=O)N[C@H]2C(=O)N[C@H]3C(=O)N[C@H](C(=O)N[C@H](C(=O)O)c4cc(O)cc(O)c4-c4cc3ccc4O)[C@H](O)c3ccc(c(Cl)c3)Oc3cc2cc(c3O[C@@H]2O[C@H](CO)[C@@H](O)[C@H](O)[C@H]2O[C@H]2C[C@](C)(N)[C@H](O)[C@H](C)O2)Oc2ccc(cc2Cl)[C@H]1O [VANCOMYCIN] |  |  | MBC (Bacillus subtilis): < 1 µM; MIC (Bacillus subtilis): < 1 µM; MBC (Bacillus anthracis): < 1 µM; MIC (Bacillus anthracis): < 1 µM
COc1ccc(C2CCN(c3nncc(-c4ccc(C)o4)n3)C2)cc1O (stereo not drawn) | 5% | > 128 | 
Nc1cccc(-c2cnnc(N3CCC(c4cccc(Cl)c4)C3)n2)c1 (stereo not drawn) |  |  | Activity (HeLa): Non-toxic; Activity [1]: Non-toxic
Clc1cccc(C2CCN(c3nncc(-c4ccc5c(c4)OCO5)n3)C2)c1 (stereo not drawn) |  | > 16 | solubility [5]: < 100 µM
